Consider six compounds from US12539292B2, “BRM targeting compounds and associated methods of use” (Arvinas Operations, Inc., priority 2018, dated 2026).

Read-outs that look alike come from different tables or passages of the source.

The experiment addresses T1, BRM (Homo sapiens, UniProt P51531).
T1 construct: In-Cell Western Screen of BRM Degradation in SW1573 Cells; endogenous in cells; host or cells: SW1573
The experiment in a line: In-cell Western screen of BRM degradation in SW1573 cells (Dmax and DC50). It counts as cell-based. In outline:
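BRM levels were read by LI-COR in-cell Western after two-channel (800/680 nm) immunostaining of fixed, Triton-permeabilised SW1573 cells.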

[1] abbreviates: BRM degradation, SW1573 cells, read-out: DC50.
Where [2] appears, read: BRM degradation, SW1573 cells, when tested at the top concentration of between 0.3 and 10 μM, read-out: Dmax (%) (% degraded).

T1 sequence (P51531 whole entry): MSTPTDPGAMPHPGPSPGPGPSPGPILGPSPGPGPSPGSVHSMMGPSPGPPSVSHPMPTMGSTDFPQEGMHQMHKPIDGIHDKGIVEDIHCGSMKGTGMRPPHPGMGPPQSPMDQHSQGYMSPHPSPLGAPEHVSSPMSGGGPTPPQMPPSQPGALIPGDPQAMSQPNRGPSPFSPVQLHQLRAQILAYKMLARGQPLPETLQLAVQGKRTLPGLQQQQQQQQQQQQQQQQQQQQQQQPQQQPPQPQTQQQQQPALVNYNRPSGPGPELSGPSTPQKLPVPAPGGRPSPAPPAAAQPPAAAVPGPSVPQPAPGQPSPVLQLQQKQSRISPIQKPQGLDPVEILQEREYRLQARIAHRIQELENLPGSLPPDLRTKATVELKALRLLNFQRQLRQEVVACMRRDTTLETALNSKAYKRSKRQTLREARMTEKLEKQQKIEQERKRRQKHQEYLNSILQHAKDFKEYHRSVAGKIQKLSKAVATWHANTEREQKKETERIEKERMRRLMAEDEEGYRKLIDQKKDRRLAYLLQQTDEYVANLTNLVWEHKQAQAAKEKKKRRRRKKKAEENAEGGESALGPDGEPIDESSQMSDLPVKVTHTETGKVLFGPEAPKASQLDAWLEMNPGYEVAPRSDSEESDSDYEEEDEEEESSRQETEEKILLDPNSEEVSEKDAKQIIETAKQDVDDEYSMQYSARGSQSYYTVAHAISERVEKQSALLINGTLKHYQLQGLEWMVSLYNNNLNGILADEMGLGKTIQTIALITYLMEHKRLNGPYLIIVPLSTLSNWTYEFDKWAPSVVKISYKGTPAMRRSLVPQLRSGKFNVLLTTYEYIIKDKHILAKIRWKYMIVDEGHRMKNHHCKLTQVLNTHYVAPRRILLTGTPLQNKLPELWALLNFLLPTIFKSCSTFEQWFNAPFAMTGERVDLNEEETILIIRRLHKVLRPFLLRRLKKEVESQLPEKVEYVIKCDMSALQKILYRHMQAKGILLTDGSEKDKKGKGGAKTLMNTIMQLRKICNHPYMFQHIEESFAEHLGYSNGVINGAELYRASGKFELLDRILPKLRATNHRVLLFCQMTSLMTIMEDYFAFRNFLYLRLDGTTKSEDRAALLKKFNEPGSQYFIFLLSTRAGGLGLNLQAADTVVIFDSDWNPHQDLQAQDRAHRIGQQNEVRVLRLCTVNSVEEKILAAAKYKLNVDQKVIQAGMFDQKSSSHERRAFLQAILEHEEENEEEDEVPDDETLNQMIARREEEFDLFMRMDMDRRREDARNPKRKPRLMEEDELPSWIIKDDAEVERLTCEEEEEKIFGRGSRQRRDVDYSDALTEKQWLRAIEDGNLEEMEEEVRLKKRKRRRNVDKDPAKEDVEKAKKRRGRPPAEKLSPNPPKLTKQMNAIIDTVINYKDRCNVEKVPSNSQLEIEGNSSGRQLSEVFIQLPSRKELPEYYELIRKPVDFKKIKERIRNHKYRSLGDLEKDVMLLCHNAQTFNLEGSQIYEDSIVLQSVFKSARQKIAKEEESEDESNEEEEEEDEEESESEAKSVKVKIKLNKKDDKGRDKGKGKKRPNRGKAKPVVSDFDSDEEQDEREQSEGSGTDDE

For “(2S,4R)-1-((2R)-2-(3-(2-(4-((1r,3R)- 3-((4-(3-(3-amino-6-(2- hydroxyphenyl)pyridazin-4-yl)-3,8- diazabicyclo[3.2.1]octan-8- yl)pyridin-2- yl)oxy)cyclobutoxy)piperidin-1- yl)ethoxy)isoxazol-5-yl)-3- methylbutanoyl)-4-hydroxy-N-(4-(4- methylthiazol-5- yl)benzyl)pyrrolidine-2-carboxamide [compound 146]”, under setting [1], the DC50 (as a rule, the midpoint of the concentration-degradation curve) is less than 2.5 nM. Also, the “Dmax (%) (% degraded)” value (BRM degradation, SW1573 cells, when tested at the top concentration of between 0.3 and 10 μM) is listed as “A (A > 75)”. As to `CC(=O)N1CC(NC(=O)[C@@H]2C[C@@H](O)CN2C(=O)[C@@H](c2cc(OCCN3CCN(CCOc4cc(N5C6CCC5CN(c5cc(-c7ccccc7O)nnc5N)C6)ccn4)CC3)no2)C(C)C)(c2ccc(-c3scnc3C)cc2)C1` [compound 127, (2S,4R)-N-(1-acetyl-3-(4-(4-methylthiazol-5-yl)phenyl)azetidin-3-yl)-1-((2R)-2-(3-(2-(4-(2-((4-(3-(3-amino-6-(2-hydroxyphenyl)pyridazin-4-yl)-3,8-diazabicyclo[3.2.1]octan-8-yl)pyridin-2-yl)oxy)ethyl)piperazin-1-yl)ethoxy)isoxazol-5-yl)-3-methylbutanoyl)-4-hydroxypyrrolidine-2-carboxamide], under setting [1], the DC50 lay within 10 to 30 nM. The Dmax (usually the largest share of the target that was removed) under setting [2] is greater than 75%. With `Cc1ncsc1-c1ccc([C@H](C)NC(=O)[C@@H]2C[C@@H](O)CN2C(=O)[C@H](c2cc(N3CCC(OC4CCN(CC5CC(CN6CCC([C@@H](C)n7cc(-c8cc(-c9ccccc9O)nnc8N)cn7)CC6)C5)CC4)CC3)no2)C(C)C)cc1` (single isomer, unassigned) [compound 595], for the setting “BRM degradation, SW1573 cells, Table 2D, read-out: **Dmax (%) (% degraded)”, the Dmax is greater than 75%. Also, the DC50 (BRM degradation, SW1573 cells, Table 2D, read-out: *DC50) is less than 2.5 nM. For `Cc1nccn1-c1ccc([C@H](C)NC(=O)[C@@H]2C[C@@H](O)CN2C(=O)[C@@H](c2cc(OCCN3CCC(O[C@H]4C[C@H](Oc5cc(N6C7CCC6CN(c6cc(-c8ccccc8O)nnc6N)C7)ccn5)C4)CC3)no2)C(C)C)cc1` [compound 178, (2S,4R)-1-((2R)-2-(3-(2-(4-((1r,3R)-3-((4-(3-(3-amino-6-(2-hydroxyphenyl)pyridazin-4-yl)-3,8-diazabicyclo[3.2.1]octan-8-yl)pyridin-2-yl)oxy)cyclobutoxy)piperidin-1-yl)ethoxy)isoxazol-5-yl)-3-methylbutanoyl)-4-hydroxy-N-((S)-1-(4-(2-methyl-1H-imidazol-1-yl)phenyl)ethyl)pyrrolidine-2-carboxamide], the DC50 under setting [1] was less than 2.5 nM. The Dmax (BRM degradation, SW1573 cells, tested at the top concentration of between 0.3 and 10 μM, read-out: Dmax (%) (% degraded)) was greater than 75%.

As to `Cc1ncsc1-c1ccc([C@H](C)NC(=O)[C@@H]2C[C@@H](O)CN2C(=O)[C@H](c2cc(OCC(F)(F)CN3CCC(O[C@H]4C[C@H](Oc5cc(N6C7CCC6CN(c6cc(-c8ccccc8O)nnc6N)C7)ccn5)C4)CC3)no2)C(C)C)cc1` [compound 483, (2S,4R)-1-((2S)-2-(3-(3-(4-((1r,3S)-3-((4-(3-(3-amino-6-(2-hydroxyphenyl)pyridazin-4-yl)-3,8-diazabicyclo[3.2.1]octan-8-yl)pyridin-2-yl)oxy)cyclobutoxy)piperidin-1-yl)-2,2-difluoropropoxy)isoxazol-5-yl)-3-methylbutanoyl)-4-hydroxy-N-((S)-1-(4-(4-methylthiazol-5-yl)phenyl)ethyl)pyrrolidine-2-carboxamide], the DC50 (target protein degradation, read-out: BRM DC50) is greater than 30 nM. Turning to `Cc1ncsc1-c1ccc(CNC(=O)[C@@H]2C[C@@H](O)CN2C(=O)[C@@H](NC(=O)COCCOCCOCCOCCOCCOCCn2cc(-c3cc(-c4ccccc4O)nnc3N)cn2)C(C)(C)C)cc1` [compound 3, (2S,4R)-1-((S)-23-(4-(3-amino-6-(2-hydroxyphenyl)pyridazin-4-yl)-1H-pyrazol-1-yl)-2-(tert-butyl)-4-oxo-6,9,12,15,18,21-hexaoxa-3-azatricosanoyl)-4-hydroxy-N-(4-(4-methylthiazol-5-yl)benzyl)pyrrolidine-2-carboxamide], the 50% degradation concentration (DC50) under setting [1] is greater than 30 nM. For the same compound, the Dmax under setting [2] was greater than 75%.
